Tested on: iPSC-derived cortical neurons
Format: cell-based
[1] = responders vs non-responders after 10 μM Bupropion, p<0.01
[2] = responders vs non-responders, 10 μM Bupropion, NS
[3] = responders vs non-responders, 10 μM Bupropion, p<0.01

## CC(NC(C)(C)C)C(=O)c1cccc(Cl)c1 (stereo not drawn) [Bupropion, 3-Chloro-N-tert-butyl-β-keto-α-methylphenethylamin]
[1]
  logFC PLCH2: −1.051
  logFC PLD5: −1.909
  logFC PLEKHD1: −3.283
  logFC PLPP4: −0.9989
  logFC PODN: −1.12
  logFC POLR2J3: −0.756
  logFC POU4F1: −1.728
  logFC PRCD: −1.032
  logFC PRPH: −2.033
  logFC PRSS33: −1.593
  logFC PSD4: −0.7234
  logFC PSMB8: −1.14
  logFC PSMB9: −1.682
  logFC PTGDS: −1.612
  logFC PTGER2: −2.59
  logFC RAB42: −0.5093
  logFC RBMS3: −0.8065
  logFC RBP1: −0.6676
  logFC RPH3A: −2.057
  logFC RSAD2: −1.646
  logFC S100B: −1.744
  logFC SAMD9: −1.373
  logFC SAMD9L: −1.954
  logFC SH3TC2: −1.437
  logFC SKOR2: −2.986
  logFC SLC2A1: −0.6362
  logFC SLC4A4: −1.35
  logFC SLC38A3: −0.8613
  logFC SMPD1: −0.5833
  logFC SST: −1.012
  logFC SUN2: −0.4523
  logFC SUSD1: −0.629
  logFC SYNC: −1.688
  logFC TAF1C: −0.387
  logFC TAP1: −0.8369
  logFC TAP2: −0.8068
  logFC TBC1D2: −0.6958
  logFC TF: −1.257
  logFC THBS2: −1.7
  logFC TLR6: −1.138
  logFC TLX1: −2.764
  logFC TLX3: −1.593
  logFC TMC3: −2.021
  logFC TMEM175: −0.5016
  logFC TMEM176A: −1.203
  logFC TMEM176B: −1.184
  logFC TNFRSF14: −1.091
  logFC TRAF1: −0.9274
  logFC TREM1: −2.481
  logFC TRIM8: −0.2802
  logFC TRMT9B: −0.6888
  logFC TRPV2: −1.594
  logFC TSHZ3: −1.109
  logFC USH1C: −1.858
  logFC USP18: −0.9659
  logFC VLDLR: −0.4024
  logFC VSTM2B: −1.079
  logFC ZFPM1: −0.5127
  logFC ZNF575: −0.87
[2]
  logFC ADAMTS9 expression: 0.9659
  logFC ADGRE5 expression: 0.9432
  logFC AMMECR1 expression: 0.7173
  logFC ANKRD1 expression: 2.712
  logFC ANKRD18A expression: 1.155
  logFC ANKRD33B expression: 0.8016
  logFC ANLN expression: 0.911
  logFC AP3B1 expression: 0.7614
  logFC ARHGAP10 expression: 1.24
  logFC ARHGAP11A expression: 0.7121
  logFC ARHGAP19 expression: 0.5865
  logFC ARL11 expression: 0.8189
  logFC BAX expression: 0.4774
  logFC BUB1 expression: 0.6384
  logFC C18orf54 expression: 0.7328
  logFC CD53 expression: 1.712
  logFC CDCA7 expression: 0.949
  logFC CDK1 expression: 0.9851
  logFC CDV3 expression: 0.7482
  logFC CENPA expression: 1.025
  logFC CENPH expression: 0.8278
  logFC CENPW expression: 0.7956
  logFC CHEK2 expression: 0.7669
  logFC CHMP4C expression: 0.6773
  logFC CHTF18 expression: 0.4356
  logFC CKS1B expression: 0.5869
  logFC CKS2 expression: 0.7778
  logFC CNN1 expression: 0.8796
  logFC COL17A1 expression: 1.832
  logFC CPVL expression: 0.8555
  logFC CRYZ expression: 1.044
  logFC CSF3R expression: 2.81
  logFC DAG1 expression: 0.5339
  logFC DCP2 expression: 0.7702
  logFC DEPDC1 expression: 1.005
  logFC DHRS2 expression: 3.271
  logFC DIAPH3 expression: 0.9363
  logFC DLGAP5 expression: 0.8304
  logFC DLX4 expression: 1.485
  logFC DLX5 expression: 2.138
  logFC DNMBP expression: 0.5323
  logFC DSG2 expression: 0.746
  logFC DSG3 expression: 2.297
  logFC DSP expression: 1.327
  logFC DUSP6 expression: 0.9289
  logFC EDA2R expression: 0.569
  logFC EFHD1 expression: 0.872
  logFC EGLN3 expression: 1.216
  logFC ELK3 expression: 0.9378
  logFC EME1 expression: 0.7814
  logFC EPHA7 expression: 1.592
  logFC ERLIN1 expression: 0.5945
  logFC ESAM expression: 1.688
  logFC EXOC3L2 expression: 1.012
  logFC FAM72A expression: 1.123
  logFC FAM72B expression: 0.9318
  logFC FAS expression: 1.079
  logFC FBXO5 expression: 0.7533
  logFC FGF23 expression: 1.468
  logFC FNDC1 expression: 0.9667
  logFC FOSL1 expression: 1.137
  logFC FOXL1 expression: 1.191
  logFC FUT10 expression: 0.6404
  logFC GNPNAT1 expression: 1.06
  logFC GTF2H3 expression: 0.8228
  logFC HACD2 expression: 0.8389
  logFC HAT1 expression: 0.7547
  logFC HDAC1 expression: 0.4991
  logFC HHIPL2 expression: 1.368
  logFC HIBADH expression: 0.5725
  logFC HMGB2 expression: 0.5953
  logFC HMMR expression: 0.9939
  logFC HNMT expression: 1.877
  logFC IMPACT expression: 0.7315
  logFC INPP5D expression: 1.208
  logFC IQGAP3 expression: 0.6692
  logFC ITGA2 expression: 0.6822
  logFC KIAA1217 expression: 0.8875
  logFC KIF2C expression: 0.6989
  logFC KIF11 expression: 0.7863
  logFC KIF14 expression: 0.7995
  logFC KIF20B expression: 0.8251
  logFC KIF23 expression: 0.7114
  logFC KRT8 expression: 1.26
  logFC KRT18 expression: 1.596
  logFC L2HGDH expression: 0.7542
  logFC LAMC1 expression: 0.8644
  logFC LPP expression: 0.7521
  logFC LRP4 expression: 1.051
  logFC LRRC15 expression: 0.6532
  logFC LTA4H expression: 0.6494
  logFC MAD2L1 expression: 0.8373
  logFC MAN2A1 expression: 0.8316
  logFC MATN3 expression: 0.9618
  logFC MDM2 expression: 0.6788
  logFC MELK expression: 0.849
  logFC MGST1 expression: 0.9354
  logFC MICB expression: 0.9474
  logFC MSX2 expression: 1.687
  logFC MT1E expression: 0.1751
  logFC MTBP expression: 0.7803
  logFC MUC4 expression: 0.8705
  logFC NDC1 expression: 0.8188
  logFC NDC80 expression: 0.8291
  logFC NEMP1 expression: 0.791
  logFC NGF expression: 0.7928
  logFC NLRP1 expression: 1.235
  logFC NOSTRIN expression: 1.169
  logFC NPPB expression: 1.671
  logFC NUF2 expression: 0.7214
  logFC NUP37 expression: 0.7592
  logFC NUPR1 expression: 1.745
  logFC ORC6 expression: 0.8019
  logFC PADI1 expression: 0.9659
  logFC PGM2 expression: 0.8787
  logFC PLAU expression: 2.302
  logFC PMP22 expression: 1.525
  logFC POLQ expression: 0.7494
  logFC PPP1R13L expression: 0.8159
  logFC PRDX6 expression: 0.5898
  logFC PROCR expression: 1.393
  logFC PRR11 expression: 0.6089
  logFC PTGR1 expression: 0.6824
  logFC PYGL expression: 0.8577
  logFC RAD51AP1 expression: 1.085
  logFC RBMS1 expression: 0.7861
  logFC RPL22L1 expression: 1.141
  logFC RPS27L expression: 0.7459
  logFC RREB1 expression: 0.5116
  logFC RRM2B expression: 0.7867
  logFC RUNX2 expression: 0.8924
  logFC S1PR5 expression: 1.906
  logFC SELENOV expression: 0.8135
  logFC SEM1 expression: 0.5019
  logFC SEPSECS expression: 0.7254
  logFC SEPTIN10 expression: 0.7236
  logFC SERPINE1 expression: 2.019
  logFC SESN1 expression: 0.7238
  logFC SFT2D1 expression: 0.6487
  logFC SLC22A31 expression: 0.9625
  logFC SLC47A1 expression: 2.056
  logFC SPDL1 expression: 0.7492
  logFC SPOCD1 expression: 1.33
  logFC SPP1 expression: 1.215
  logFC STIL expression: 0.759
  logFC STX3 expression: 0.5017
  logFC SWAP70 expression: 0.8869
  logFC TAF4B expression: 0.9582
  logFC TFPI2 expression: 1.367
  logFC TGIF1 expression: 0.8371
  logFC TM7SF3 expression: 0.5627
  logFC TMTC1 expression: 1.156
  logFC TNFRSF10D expression: 0.8463
  logFC TNFRSF12A expression: 0.7449
  logFC TOP2A expression: 0.7201
  logFC TPM1 expression: 0.7857
  logFC TRAM2 expression: 0.5417
  logFC TRIAP1 expression: 0.7343
  logFC TTK expression: 0.82
  logFC UBE2C expression: 0.5692
  logFC USP28 expression: 0.4989
  logFC USP53 expression: 0.8262
  logFC VRK1 expression: 0.7229
  logFC VWDE expression: 1.176
  logFC WEE1 expression: 1.13
  logFC WNT9B expression: 0.5972
  logFC WWC2 expression: 0.7083
  logFC XPO1 expression: 0.7396
  logFC YBX3 expression: 0.5165
  logFC ZGRF1 expression: 0.9121
  logFC ZIC2 expression: 0.7767
[3]
  logFC ADAL expression: 0.3007
  logFC ANKRD27 expression: 0.3035
  logFC ARHGEF26 expression: 0.4633
  logFC ATAD5 expression: 0.5442
  logFC BAG4 expression: 0.4071
  logFC CCDC150 expression: 0.6042
  logFC CDH6 expression: 0.9224
  logFC CHML expression: 0.4888
  logFC DHFR expression: 0.5987
  logFC DLX2 expression: 0.9412
  logFC DMRTA1 expression: 0.858
  logFC DNA2 expression: 0.5431
  logFC EIF1AX expression: 0.5493
  logFC F8 expression: 0.4608
  logFC FBXO22 expression: 0.2957
  logFC FREM2 expression: 0.865
  logFC GPC3 expression: 1.257
  logFC HAUS6 expression: 0.5025
  logFC HLA-DMA expression: 0.9185
  logFC ITGA6 expression: 0.5208

— patent US20230094922A1, “METHODS OF THERAPEUTIC PROGNOSTICATION” (GENETIKAPLUS LTD., priority 2020, published 2023)
